# Source: patent publication US20250288583A1, “Treatment of Mucus Hypersecretion” (priority 2024, published 2025)
# “Also recorded” adds a separate entry of the source.
# Legend:
# TRPV1 = target: T1, TRPV1 (Homo sapiens, UniProt Q8NER1); assay: TRPV1 specificity assay in transfected cells; assay type: cell-based; settings: FIG. 5; capsaicin positive control
# T1 construct: expressed in transfected cells
# hTRPM8 channel = target: T2, hTRPM8 channel (Homo sapiens, UniProt Q7Z2W7); assay: TRPM8 receptor assay, calcium entry (Fluo-8, FLIPR) in transfected CHO cells; assay type: cell-based; settings: for Potency Relative to L-menthol: ratio of TRPM8 EC50 values, menthol = 1.0
# T2 construct: host or cells: CHO cells
# T2 sequence (Q7Z2W7 whole entry): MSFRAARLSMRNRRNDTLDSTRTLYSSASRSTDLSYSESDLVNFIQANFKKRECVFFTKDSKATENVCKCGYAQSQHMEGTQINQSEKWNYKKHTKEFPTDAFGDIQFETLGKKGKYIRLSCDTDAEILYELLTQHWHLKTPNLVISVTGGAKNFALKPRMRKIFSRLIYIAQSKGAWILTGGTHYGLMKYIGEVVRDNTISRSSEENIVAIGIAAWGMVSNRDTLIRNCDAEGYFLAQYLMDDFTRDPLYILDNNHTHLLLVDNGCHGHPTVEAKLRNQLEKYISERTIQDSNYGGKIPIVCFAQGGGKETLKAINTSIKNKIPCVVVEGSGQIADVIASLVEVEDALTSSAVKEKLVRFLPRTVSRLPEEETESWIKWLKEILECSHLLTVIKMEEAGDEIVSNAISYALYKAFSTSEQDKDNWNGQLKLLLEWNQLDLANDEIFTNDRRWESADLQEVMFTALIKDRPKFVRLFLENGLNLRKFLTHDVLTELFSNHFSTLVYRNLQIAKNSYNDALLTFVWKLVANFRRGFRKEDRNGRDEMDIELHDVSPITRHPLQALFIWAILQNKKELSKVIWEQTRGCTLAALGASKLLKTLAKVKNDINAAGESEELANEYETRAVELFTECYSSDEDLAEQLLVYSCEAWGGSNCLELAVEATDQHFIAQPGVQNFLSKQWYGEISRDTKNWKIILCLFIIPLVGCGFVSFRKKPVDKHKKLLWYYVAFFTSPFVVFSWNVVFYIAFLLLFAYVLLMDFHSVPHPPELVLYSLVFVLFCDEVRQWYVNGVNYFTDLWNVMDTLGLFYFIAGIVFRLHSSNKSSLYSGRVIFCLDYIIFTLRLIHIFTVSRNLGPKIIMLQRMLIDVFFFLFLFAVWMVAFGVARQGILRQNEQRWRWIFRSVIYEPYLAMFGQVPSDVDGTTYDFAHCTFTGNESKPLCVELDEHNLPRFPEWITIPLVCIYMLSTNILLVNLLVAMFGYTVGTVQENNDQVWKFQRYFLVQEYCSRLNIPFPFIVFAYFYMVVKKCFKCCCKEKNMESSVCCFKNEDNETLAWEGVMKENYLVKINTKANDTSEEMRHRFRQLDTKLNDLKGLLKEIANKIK
# nasal cavity [1] = assay: Nebulizer screening of TRPM8 agonists for sensations in the nasal cavity; assay type: in vivo, human; settings: NasoNeb nebulizer, 3 to 5 sec per nostril
# nasal cavity [2] = assay: Gravimetric measurement of nasal secretions in a subject with rhinitis after NasoNeb rinsing; assay type: in vivo, human; settings: NasoNeb rinse 5 sec at t=0, 2, 5 hr, D-Ala-OiPr 2 mg/mL, GlyOiPr 3 mg/mL; for Weight of individual blowouts of nasal secretions (average ± s.e.m.): vehicle 0.40±0.03 g; for 10-hr nasal secretion (avg. ± s.e.m): vehicle 3.53±0.44 g
# Description: A top-loading balance, sensitive to 1 mg, was used to measure phlegm secretions from the nose. A pre-weighed tissue paper was tared to zero, and after blowing into the tissue, the amount of exudate was recorded from the balance display. This measurement is an objective sign of nasal inflammation. Microbalances, sensitive to 1 mg, are now available online for less than $20. Conventional laboratory balances with the same capabilities are listed for $2000+ each but should now be obsolete. The convenience of an inexpensive method for quantifying phlegm output as an indicator of nasal pathology is part of the inventive steps.
# FIG. 9. Inhibition of nasal secretions in a subject with rhinitis by topical administration of the preferred embodiments D-Ala-OiPr and GlyOiPr with a Nasoneb® apparatus. Rinsing of GlyOiPr and D-Ala-OiPr (dissolved 3 mg/ml and 2 mg/mL, respectively, in 1% ethanol and 2% polysorbate 80) was for 5 sec at t=0, 2, and 5 hr. Secretions were recorded for 10-15 hr per day. The 10-hr secretion (avg.±s.e.m) was vehicle 3.53±0.44 g, D-Ala-OiPr 1.70±0.27 g, GlyOiPr 1.32±0.32 g, with n=6, 5, 5 observations per group, respectively.
# FIG. 10. Weights of individual blowouts of nasal secretions in a subject with rhinitis after topical administration of D-Ala-OiPr and GlyOiPr with a Nasoneb® apparatus. The vehicle or test substances were rinsed into the nasal cavity (0 mg/mL, 2 mg/mL and 3 mg/mL, respectively, for 5 sec at t=0, 2, and 5 hr). The data points are for individual “blowouts” from the nose, measured with tissue paper and balance. The data are plotted on a semi-log scale, so zero values are not shown. The average #s.e.m. for blowouts were: vehicle 0.40±0.03 g, D-Ala-OiPr 0.19±0.02 g, GlyOiPr 0.19±0.02 g, with n=70, 44, 42 observations per group, respectively.
# In the first experimental step, the phlegm secretion must be accurately measured. That is, it is necessary to show what is “blown out” of the nose in patients with rhinitis (FIG. 8). The treatment goal is to reduce the accumulation of dense, slimy, viscous phlegm, which will otherwise ooze out of the nasal cavity. In practice, it was discovered that if treatment can reduce individual blowouts to <0.25 g/event, the subject with rhinitis becomes essentially “disease-free” and is able to have normal daily activities and sleep well at night. […] The top-loading microbalance method for quantifying phlegm weight is an excellent monitor of rhinitis intensity.
# FIG. 9. […] The data points represent secretions recorded for 10-15 hr per day. These points were fitted by linear regression (GraphPad Prism), and the 10-hr secretion measured (avg.±s.e.m) as vehicle 3.53±0:44 g, D-Ala-OiPr 1.700:27 g; GlyOiPr 1.32±0.32 g, with n=6, 5, 5 observations per group, respectively. […]
# Stability of the solid = assay type: physicochemical; settings: room temperature and physiological pH
# oral cavity = settings: Johnson et al., 2018; cited from earlier work
# T1 sequence (Q8NER1 whole entry, species assumed): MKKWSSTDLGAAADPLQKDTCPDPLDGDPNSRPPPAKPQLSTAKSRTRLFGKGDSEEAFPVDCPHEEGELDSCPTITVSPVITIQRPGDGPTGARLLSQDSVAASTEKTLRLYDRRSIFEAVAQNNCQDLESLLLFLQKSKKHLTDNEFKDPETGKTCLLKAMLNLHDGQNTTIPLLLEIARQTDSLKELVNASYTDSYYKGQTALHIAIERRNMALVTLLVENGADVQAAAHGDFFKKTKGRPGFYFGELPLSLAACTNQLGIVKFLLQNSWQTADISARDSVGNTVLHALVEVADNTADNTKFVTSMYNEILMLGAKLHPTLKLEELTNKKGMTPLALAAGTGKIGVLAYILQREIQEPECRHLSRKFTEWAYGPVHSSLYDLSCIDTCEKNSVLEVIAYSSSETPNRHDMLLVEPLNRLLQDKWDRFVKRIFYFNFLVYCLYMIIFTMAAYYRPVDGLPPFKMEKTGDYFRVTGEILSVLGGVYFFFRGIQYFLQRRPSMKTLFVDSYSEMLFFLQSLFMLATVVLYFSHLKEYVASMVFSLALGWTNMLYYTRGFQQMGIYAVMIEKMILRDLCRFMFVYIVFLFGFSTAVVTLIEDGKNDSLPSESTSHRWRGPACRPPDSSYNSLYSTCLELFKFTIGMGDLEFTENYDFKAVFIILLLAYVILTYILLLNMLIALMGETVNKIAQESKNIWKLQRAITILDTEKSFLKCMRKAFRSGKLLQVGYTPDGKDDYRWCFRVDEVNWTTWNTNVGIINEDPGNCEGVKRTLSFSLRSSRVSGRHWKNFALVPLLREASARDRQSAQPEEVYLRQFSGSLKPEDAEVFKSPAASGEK
Compound,Response of cells transfected with TRPV1 (TRPV1),"EC50 (hTRPM8 channel; CHO cells transfected with hTRPM8, Fluo-8 calcium kit, FLIPR)",Potency Relative to L-menthol (hTRPM8 channel),Sensory effects after delivery into the nasal cavity (nasal cavity [1]),Weight of individual blowouts of nasal secretions (average ± s.e.m.) (nasal cavity [2]),10-hr nasal secretion (avg. ± s.e.m) (nasal cavity [2]),Activity on TRPM8 transfected cells (hTRPM8 channel; FIG. 5),Stability (Stability of the solid),Sensory qualities in the oral cavity compared with WS-5 (oral cavity)
"CC(C)OC(=O)[C@@H](C)NC(=O)[C@@H]1C[C@H](C)CC[C@H]1C(C)C [D-Ala-OiPr, (R)-2-[((1R,2S,5R)-2-isopropyl-5-methyl-cyclohexanecarbonyl)amino]-propionic acid i-propyl ester]",inactive,0.26 µM,14.6,Longer-acting than GlyOiPr. Excellent agent. It may have a slightly bitter taste.,0.19 ± 0.02 g,1.70±0.27 g,–,–,–
"CC(C)OC(=O)CNC(=O)[C@@H]1C[C@H](C)CC[C@H]1C(C)C [GlyOiPr, [((1R,2S,5R)-2-isopropyl-5-methyl-cyclohexanecarbonyl)-amino]-acetic acid isopropyl ester]",do not respond; also recorded: activates TRPM8 but not TRPV1 or TRPA1,–,7.6,"The sense of coolness is pure, without any harsh tones.",0.19 ± 0.02 g,1.32±0.32 g,active,stable at room temperature and physiological pH,more refreshing and less bitter than WS-5
